From patent US20170314074A1, “LPA-ASSOCIATED PROTEIN AND RNA EXPRESSION” (Intermune, Inc., priority 2014, published 2017)

Test system: normal human lung fibroblasts, human bronchial epithelial cells, and human pulmonary alveolar epithelial cells
Experiment: Secreted protein expression after LPA induction, aptamer-based proteomic platform (SomaLogic, 1129 proteins)
Type: cell-based
Settings: 24 hours
Description: Changes in gene expression after 3 hours of LPA induction were profiled on Affymetrix Human Gene ST 2.0 microarrays; differentially expressed genes identified by ANOVA with FDR <0.05 and fold-change >1.2. Process networks associated with differentially expressed genes were defined using MetaCore. Changes in secreted protein expression after 24 hours of LPA induction were profiled on an aptamer-based proteomic platform (1129 proteins); differentially expressed proteins identified by t-test.
Treatment of cells with LPA, isolation supernatant, analysis of secreted protein expression using soma panel was performed as follows: Supernatant was collected from in vitro cultures of normal human lung fibroblasts, human bronchial epithelial cells, and human pulmonary alveolar epithelial cells treated for 24 hours with LPA and/or LPAR1 inhibitor. Each treatment condition was assayed in triplicate. 1129 proteins were profiled using a broad aptamer-based proteomic platform (SomaLogic, Colo., US). Briefly, the technology uses DNA aptamers containing chemically modified nucleotides as highly specific protein binding reagents in a multiplexed assay that transforms the quantity of each targeted protein into a corresponding quantify of the aptamer. Protein quantities are then detected on a microarray platform and recorded as Relative Fluorescence Units (RFU).
In Tables 1-5 The differentially expressed secreted proteins set forth in Tables 1, 2, and 5 and the differentially expressed mRNAs set forth in Table 3 and 4 were identified by visual inspection of individual dot-plots.
For the gene and protein expression analysis primary fibroblasts (NHLF product #CC-2512 from Lonza group LTD) and primary epithelial cells (NHBE Product #CC-2540 from Lonza; HPAEpiC Product #3200 from Sciencell (USA, California)) were cultured as recommended by the manufacturer, except they were cultured on collagen coated plates. As part of the induction protocol cells were starved overnight in low (0.2 or 0.1% serum) or no serum (0%), prior to stimulation with LPA.

lysophosphatidic acid [LPA]
up: effect of LPA, 41 (EPB41) | effect of LPA, ADAM 9 (ADAM9) | effect of LPA, ALCAM (ALCAM) | effect of LPA, ANGL4 (ANGPTL4) | effect of LPA, AREG (AREG) | effect of LPA, ARTS1 (ERAP1) | effect of LPA, ASM3A (SMPDL3A) | effect of LPA, Activin A (INHBA) | effect of LPA, Aminoacylase-1 (ACY1) | effect of LPA, Angiogenin (ANG) | effect of LPA, Angiopoietin-1 (ANGPT1) | effect of LPA, B7-H1 (CD274) | effect of LPA, BASI (BSG) | effect of LPA, BFL1 (BCL2A1) | effect of LPA, BGH3 (TGFBI) | effect of LPA, BGN (BGN) | effect of LPA, BSSP4 (PRSS22) | effect of LPA, Bone proteoglycan II (DCN) | effect of LPA, CAPG (CAPG) | effect of LPA, CATZ (CTSZ) | effect of LPA, CK2-A1:B (CSNK2A1 CSNK2B) | effect of LPA, COMMD7 (COMMD7) | effect of LPA, CRDL1 (CHRDL1) | effect of LPA, CTAP-III (PPBP) | effect of LPA, Caspase-3 (CASP3) | effect of LPA, Cathepsin A (CTSA) | effect of LPA, Cathepsin H (CTSH) | effect of LPA, Cathepsin S (CTSS) | effect of LPA, Cathepsin V (CTSL2) | effect of LPA, Cofilin-1 (CFL1) | effect of LPA, Cyclophilin A (PPIA) | effect of LPA, Cystatin M (CST6) | effect of LPA, DAF (CD55) | effect of LPA, DBNL (DBNL) | effect of LPA, DKK1 (DKK1) | effect of LPA, DKK3 (DKK3) | effect of LPA, DPP2 (DPP7) | effect of LPA, DcR3 (TNFRSF6B) | effect of LPA, Discoidin domain receptor 2 (DDR2) | effect of LPA, Dkk-4 (DKK4) | effect of LPA, EMR2 (EMR2) | effect of LPA, ENA-78 (CXCL5) | effect of LPA, EPHA3 (EPHA3) | effect of LPA, EPI (EREG) | effect of LPA, Elafin (PI3) | effect of LPA, Endocan (ESM1) | effect of LPA, Endothelin-converting enzyme 1 (ECE1) | effect of LPA, Eotaxin (CCL11) | effect of LPA, EphB4 (EPHB4) | effect of LPA, Ephrin-A5 (EFNA5) | effect of LPA, Ephrin-B3 (EFNB3) | effect of LPA, Epithelial cell kinase (EPHA2) | effect of LPA, FGF7 (FGF7) | effect of LPA, FGF-20 (FGF20) | effect of LPA, FST (FST) | effect of LPA, FSTL3 (FSTL3) | effect of LPA, Flt-3 (FLT3) | effect of LPA, G-CSF (CSF3) | effect of LPA, GAPDH liver (GAPDH) | effect of LPA, GCP-2 (CXCL6) | effect of LPA, GREM1 (GREM1) | effect of LPA, GRN (GRN) | effect of LPA, GV (PLA2G5) | effect of LPA, Galectin-3 (LGALS3) | effect of LPA, Gro-a (CXCL1) | effect of LPA, Gro-b/g (CXCL3 CXCL2) | effect of LPA, HGF (HGF) | effect of LPA, IDE (IDE) | effect of LPA, IGF-I sR (IGF1R) | effect of LPA, IGF-II receptor (IGF2R) | effect of LPA, IGFBP-3 (IGFBP3) | effect of LPA, IGFBP-7 (IGFBP7) | effect of LPA, IL-1 R4 (IL1RL1) | effect of LPA, IL-6 (IL6) | effect of LPA, IL-6 sRa (IL6R) | effect of LPA, IL-8 (IL8) | effect of LPA, IL-11 (IL11) | effect of LPA, IL-12 RB2 (IL12RB2) | effect of LPA, IL-17D (IL17D) | effect of LPA, IP-10 (CXCL10) | effect of LPA, JAG1 (JAG1) | effect of LPA, JAG2 (JAG2) | effect of LPA, KPCI (PRKCI) | effect of LPA, LG3BP (LGALS3BP) | effect of LPA, LGMN (LGMN) | effect of LPA, LRIG3 (LRIG3) | effect of LPA, Layilin (LAYN) | effect of LPA, MCP-1 (CCL2) | effect of LPA, MCP-3 (CCL7) | effect of LPA, MICA (MICA) | effect of LPA, MICB (MICB) | effect of LPA, MIP-3a (CCL20) | effect of LPA, MMP-1 (MMP1) | effect of LPA, MMP-3 (MMP3) | effect of LPA, MMP-9 (MMP9) | effect of LPA, MMP-10 (MMP10) | effect of LPA, MMP-12 (MMP12) | effect of LPA, MMP-13 (MMP13) | effect of LPA, MRC2 (MRC2) | effect of LPA, Met (MET) | effect of LPA, Midkine (MDK) | effect of LPA, NAGK (NAGK) | effect of LPA, NAP-2 (PPBP) | effect of LPA, NCAM-L1 (L1CAM) | effect of LPA, NET4 (NTN4) | effect of LPA, NID2 (NID2) | effect of LPA, NKp46 (NCR1) | effect of LPA, NRP1 (NRP1) | effect of LPA, NRX3B (NRXN3) | effect of LPA, NXPH1 (NXPH1) | effect of LPA, Neurotrophin-3 (NTF3) | effect of LPA, Nogo Receptor (RTN4R) | effect of LPA, NovH (NOV) | effect of LPA, OMD (OMD) | effect of LPA, ON (SPARC) | effect of LPA, PAI-1 (SERPINE1) | effect of LPA, PARK7 (PARK7) | effect of LPA, PCSK7 (PCSK7) | effect of LPA, PDGF-AA (PDGFA) | effect of LPA, PDGF-BB (PDGFB) | effect of LPA, PTHrP (PTHLH) | effect of LPA, Protease nexin I (SERPINE2) | effect of LPA, RAC1 (RAC1) | effect of LPA, RANTES (CCL5) | effect of LPA, RAP (LRPAP1) | effect of LPA, RGMB (RGMB) | effect of LPA, ROBO2 (ROBO2) | effect of LPA, SARP-2 (SFRP1) | effect of LPA, SCGF-alpha (CLEC11A) | effect of LPA, SDF-1 (CXCL12) | effect of LPA, SLIK5 (SLITRK5) | effect of LPA, ST4S6 (CHST15) | effect of LPA, Semaphorin 3A (SEMA3A) | effect of LPA, Sphingosine kinase 1 (SPHK1) | effect of LPA, TAJ (TNFRSF19) | effect of LPA, TFPI (TFPI) | effect of LPA, TGF-b R III (TGFBR3) | effect of LPA, TIG2 (RARRES2) | effect of LPA, TIMP-3 (TIMP3) | effect of LPA, TNF sR-I (TNFRSF1A) | effect of LPA, TNF sR-II (TNFRSF1B) | effect of LPA, TNFSF15 (TNFSF15) | effect of LPA, TSG-6 (TNFAIP6) | effect of LPA, TSLP (TSLP) | effect of LPA, TSP2 (THBS2) | effect of LPA, TXD12 (TXNDC12) | effect of LPA, Thrombospondin-1 (THBS1) | effect of LPA, UNC5H3 (UNC5C) | effect of LPA, URB (CCDC80) | effect of LPA, VEGF121 (VEGFA) | effect of LPA, VEGF (VEGFA) | effect of LPA, VEGF-C (VEGFC) | effect of LPA, annexin I (ANXA1) | effect of LPA, discoidin domain receptor 1 (DDR1) | effect of LPA, suPAR (PLAUR) | effect of LPA, uPA (PLAU)
down: effect of LPA, ATS1 (ADAMTS1) | effect of LPA, Angiopoietin-2 (ANGPT2) | effect of LPA, Angiostatin (PLG) | effect of LPA, Apo E2 (APOE) | effect of LPA, Apo E3 (APOE) | effect of LPA, Coagulation Factor Xa (F10) | effect of LPA, DERM (DPT) | effect of LPA, FCAR (FCAR) | effect of LPA, FGF-18 (FGF18) | effect of LPA, GDF-9 (GDF9) | effect of LPA, IGFBP-2 (IGFBP2) | effect of LPA, Spondin-1 (SPON1) | effect of LPA, TWEAK (TNFSF12) | effect of LPA, TrATPase (ACP5) | effect of LPA, WKFN1 (GPRASP2) | effect of LPA, eIF-5A-1 (EIF5A) | effect of LPA, sFRP-3 (FRZB)
